Measurements as given in US9278068B2, “Vesicle compositions” (Sensulin LLC, priority 2011, dated 2016).

Key:
[1] = test system: HeLa cells; experiment: MTT assay for cytotoxicity; settings: 2 h
Protocol: The cytotoxicity of the boronic acid derivatives from Table 1 was studied by MTT assay. 150,000 HeLa cells were plated in 96 well plates on the night before the experiments. On the day of experiments, the cells were treated with the boronic acid derivatives at three different concentrations (40 nM, 80 nM, and 160 nM) for 2 h. At the end of the incubation, MTT assays (In-Vitro toxicology MTT based assay kit, Sigma Aldrich, MO) were performed according to the manufacturer's protocol.

[2] = test system: NF-κB; experiment: NF-κB assay for inflammation (nuclear translocation of NF-κB, immunocytochemistry, PCC); settings: HeLa cells; for Inflammation (PCC) 40 nM / Inflammation (PCC) 80 nM / Inflammation (PCC) 160 nM: 2 h, PCC between nuclear and cytoplasmic fraction of NF-κB
Protocol: 15,000 HeLa cells were plated in 96 well plates the night before the experiments. On the day of the experiments, the cells were treated with the boronic acids (Table 1, below) at three different concentrations (40 nM, 80 nM, and 160 nM) for 2 h. At the end of the incubation, cells were washed with phosphate buffered saline (PBS) and were fixed in 4% paraformaldehyde for 15 min and permeablized with 0.01% Triton X-100 in PBS for 10 min. The cells were washed with PBS three times. Nonspecific sites were blocked with 5% bovine serum albumin (BSA) in PBS and incubated with the Anti-NF-κB for 1 h, followed by incubation with fluorescein isothiocyanate (FITC)-labeled secondary antibody. After washing the cells at the end of the incubation, the cells were treated with 4′,6-diamidino-2-phenylindole (DAPI) for 1 min and kept at 4° C. until further analysis. Images of the cells were acquired with a Beckman-Coulter 100 automated high-throughput microscope system and analyzed using Cytseer software (Vala Sciences, CA). The co-localization of NF-κB was quantified by measuring the PCC between the nuclear and cytoplasmic fraction of the NF-κB molecule. The PCC is a measure of the overlap between the pixel intensities of the nuclear and NF-κB images of the same cell. The PCC values can range from −1 to 1. […] A negative correlation (negative PCC value) indicates an absence of nuclear translocation.

Molecule	MTT (% Cell Survival) 40 nM [1]	MTT (% Cell Survival) 80 nM [1]	MTT (% Cell Survival) 160 nM [1]	Inflammation (PCC) 40 nM [2]	Inflammation (PCC) 80 nM [2]	Inflammation (PCC) 160 nM [2]	nuclear or cytoplasmic localization of NF-κB (FIG. 4 images) ([2]; boronic acids 80 nM, 2 hrs, LPS positive control)
CC(C)[Si](C(C)C)(C(C)C)n1ccc(B(O)O)c1 [1-(triisopropylsilyl)pyrrol-E-3-boronic acid]	72.92%	65.92%	56.94%	−0.0781	0.00445	0.169.	
OB(O)c1cnn(Cc2ccccc2)c1 [1-benzyl-1H-pyrazole-4-boronic acid]	100.88%	62.54%	86.11%	−0.1081	−0.0841	0.03839	
C=C(B(O)O)c1ccccc1 [1-phenylvinylbornic acid]	66.08%	67.23%	58.91%	−0.1145	0.03776	0	
OB(O)c1cnc(OCc2ccccc2)nc1OCc1ccccc1 [2,4-bis(benzyloxy)pyrimidine-5-boronic acid]	100.05%	89.04%	74.74%	−0.0647	−0.0533	0.04709	
COc1cccc(OC)c1B(O)O [2,6-dimethoxyphenylboronic acid]	92.66%	78.05%	48.60%	−0.0679	0.03888	0.2607	
CN(C)S(=O)(=O)c1ccccc1B(O)O [2-(N,N-dimethylsulphamoyl)benzene-boronic acid]	74.92%	76.38%	47.32%	−0.1529	−0.0404	0.03422	
OB(O)c1ccc(Br)nc1 [2-bromopyridine-5-boronic acid]	95.1013%	120.589%	35.78%	0.00604	0.078	0.1446	
OB(O)c1cc2ccccc2nc1Cl [2-chloro-3-quinolineboronic acid]	30.1105%	44.7882%	32.43%	0.08644	0.05095	0.193	
OB(O)c1ccccc1Cl [2-chlorophenylboronic acid]	86.3068%	60.0002%	45.45%	−0.0957	.00949	0.09948	
OB(O)c1ccnc(Cl)c1 [2-chloropyridine-4-boronic acid]	84.93%	58.47%	56.36%	−0.1195	0.00374	0	
N#Cc1ccccc1B(O)O [2-cyanophenylboronic acid]	117.42%	62.63%	60.33%	−0.0641	0.0475	0.104	
CCOc1ccc(B(O)O)cn1 [2-ethoxy-5-pyridine-boronic acid]	81.40%	69.58%	33.80%	−0.1416	−0.0136	0.1498	
O=Cc1sccc1B(O)O [2-formyl-3-thiopheneboronic acid]	55.3376%	40.3684%	46.21%	−0.0993	−0.0793	0.1262	
OB(O)c1ccccc1O [2-hydroxyphenylboronic acid]	70.3314%	55.8039%	53.64%	−0.0198	−0.0878	0.08884	
OB(O)c1ccc2ccccc2c1 [2-napthylboronic acid]	24.3831%	37.2192%	21.1%	0.06402	0.2437	0.09593	
CCCOc1ccccc1B(O)O [2-propoxyphenylboronic acid]	45.7459%	42.2099%	41.95%	−0.0398	0.03035	−0.04954	

Molecule	MTT (% Cell Survival) 40 nM [1]	MTT (% Cell Survival) 80 nM [1]	MTT (% Cell Survival) 160 nM [1]	Inflammation (PCC) 40 nM [2]	Inflammation (PCC) 80 nM [2]	Inflammation (PCC) 160 nM [2]	nuclear or cytoplasmic localization of NF-κB (FIG. 4 images) ([2]; boronic acids 80 nM, 2 hrs, LPS positive control)
OB(O)c1cccs1 [2-thienylboronic acid]	53.48%	75.76%	61.19%	−0.121	−0.0343	0	
Cc1noc(C)c1B(O)O [3,5-dimethylisoxazole-4-boronic acid]	88.37%	90.63%	42.89%	−0.061	0.0057	−0.01277	
OB(O)c1cccc(OCc2ccccc2)c1 [3-(benzyloxy)phenylboronic acid]	99.83%	71.94%	28.92%	−0.1159	0.0809	0.3768	
O=[N+]([O-])/C=C/c1cccc(B(O)O)c1 [3-[(E)-2-nitrovinyl]phenylboronic acid]	116.00%	96.38%	73.93%	−0.0456	−0.0517	0.2058	
NC(=O)c1cccc(B(O)O)c1 [3-aminocarbonylphenylboronic acid]	101.02%	77.93%	29.19%	−0.0696	0.07022	0.1748	
OB(O)c1cscc1Br [3-bromothiophene-4-boronic acid]	76.45%	95.90%	97.49%	−0.0695	0.1568	0.1528	
OB(O)c1cc(Br)cs1 [3-bromothiophene-5-boronic acid]	116.67%	97.63%	62.08%	−0.1162	−0.023	0.1539	
O=C(O)c1cc(B(O)O)cc([N+](=O)[O-])c1 [3-carboxy-5-nitrophenylboronic acid]	54.3094%	46.2431%	33.3%	−0.0136	0.03893	0.1227	
N#Cc1cc(B(O)O)ccc1F [3-cyano-4-fluorophenylboronic acid]	89.30%	60.46%	47.56%	−0.0231	0.1014	0	
O=Cc1ccoc1B(O)O [3-formylfuran-2-boronic acid]	107.84%	73.72%	65.18%	−0.0012	0.0274	0.08621	
OB(O)c1cccc(O)c1 [3-hydroxyphenylboronic acid]	104.60%	62.75%	89.29%	−0.1136	0.04005	0	
OB(O)c1ccsc1 [3-thienylboronic acid]	90.42%	80.00%	49.85%	−0.0062	0.1457	0.05963	
CN(C)c1ccc(B(O)O)cc1 [4-(dimethylamino)phenylboronic acid]	78.59%	71.75%	51.04%	−0.1318	−0.0051	0.213	
N#Cc1ccc(B(O)O)cc1 [4-cyanophenylboronic acid]	60.40%	63.69%	54.22%	−0.0705	−0.204	0.4879	
OB(O)c1cccc2c1oc1ccccc12 [4-dibenzofuranboronic acid]	71.48%	75.50%	70.50%	−0.0736	−0.0438	−0.128	
lipopolysaccharide [LPS, reference compound]							nuclear translocation of NF-κB
